Broadly, the AUC(0-t) is exposure summed from dosing to a finite time, without extrapolation to infinity.

Consider three compounds from patent US20250352654A1, “PHARMACEUTICAL AGENT CONJUGATES TO MODULATE MACROPHAGE AND INFLAMMATORY FUNCTIONS AND USES THEREOF” (REGENTS OF THE UNIVERSITY OF MINNESOTA, priority 2022, published 2025).

In one series the test system is arthritic joints. Put plainly: CRV accumulation in joints of K/BxN serum-transfer arthritis mice (IHC). The conditions noted are these: FAM peptide i.v., 1 hour. It is filed as in vivo, mouse. The method, then: (B) The arthritic mice were injected intravenously with a control peptide (GGS, top) or CRV (bottom). The mice were sacrificed after 1 hour and joints were collected for IHC staining.
(§1) FIGS. 7B-7D illustrates In vivo CRV peptide distribution in arthritic mouse models. (B) Scheme of synthesis of 64Cu-DOTA-CRV. (C) Representative immunohistochemistry (IHC) images of peptide accumulation in the tissues of collagen-induced-arthritis (CIA) mice with anti-FITC antibody for FAM-labeled CRV and FAM-GGS, upon intravenous injection for 1 h, respectively. Scale bars: 100 μm. (D) Representative IHC images of CRV-peptide and a control peptide (GGS) accumulation in the ankle joints of K/B×N serum-transfer arthritic mice at 1 h post intravenous injection as detected by FAM signals with anti-FITC antibody. Scale bar: 200 μm for 10× magnification; 100 μm for 20× magnification. All the animal experiments were performed in 3 mice per group. DOTA, 1,4,7,10-tetraazacyclododocane tetraacetic acid; FAM, carboxyfluorescein; FITC, fluorescein isothiocyanate.
To study the accumulation of CRV in inflamed joints, 100 μl of fluorescein (FAM)-CRV peptide solution (1 mg/ml in PBS) and the control peptide, GGS (SEQ ID NO: 2), was injected intravenously into mice with K/B×N serum-transfer arthritis (for a description of this mouse model, see VetPathol 52(5):819-26, 2015). […]

A further series concerns inflamed lung. As to the kind of experiment: CRV peptide homing in LPS-induced ALI mice (IHC/IF). The conditions noted are these: healthy (PBS) mice; FAM-labeled peptide i.v., 1 h; IHC and IF. It counts as in vivo, mouse. The method, then: (A) Representative immunohistochemistry (IHC) images of targeting RXRB by CRV peptide in the lung of acute lung injury (ALI) mice. Control (PBS) or ALI (LPS-treated) mice were intravenously injected with FAM-labeled CRV or a control peptide (GGS) for 1 h homing, respectively. The lungs were collected for IHC analysis on whole-cell RXRB expression (left) and peptide amount (detected by anti-FITC antibody, right). (B) Quantification of FITC expression for FAM-labeled peptides in the lungs by IHC staining. (C) Representative immunofluorescence (IF) images of colocalization of rabbit anti-RXRB antibody with CD11b in PBS controls (top) and acute lung injury (ALI) mice (bottom). The lungs were collected for IF staining for the indicated markers after 6 h in vivo homing by intravenous injection of 25 mg of rabbit polyclonal RXRB antibodies in […] of PBS in mice. The mice receiving intratracheal injection of PBS served as healthy controls. All the animal experiments were performed in three mice per group. (D) Relative percentage of RXRB-positive cells in different tissues of ALI mice. […] The fluorescence intensity for CRV or GGS binding per cells was plotted in the histograms. […] (H) Quantification of RXRB in IHC sections from lungs of human subjects with ILD. […] FAM, carboxyfluorescein; FITC, fluorescein iso-thiocyanate; A.U., arbitrary units; MFI, mean fluorescence intensity; Neg, negative. […]

A short description of series [1]: DEX-PEG conjugations with different PEG lengths in obese mice with ALI. It is filed as in vivo, mouse. The conditions noted are these: 0.1 mg/kg DEX equivalent i.v. every other day for 3 weeks. The method, then: (A) Body weight of mice in each treatment group. (B) Blood glucose of mice during the ITT experiment. Mice were fasted for 6 hours, and […] of insulin was administered via intraperitoneal (i.p.) injection. The blood glucose levels were measured using Clarity BG1000 Blood Glucose Meter Strips at 0, 15, 30, 60, 90, and 120 minutes after the injection. (C) Thymus weight of mice in each group at the end of the study. Triglycerides (D), total cholesterol (E) and non-HDL cholesterol (F) in mice plasma were quantified by LiquiColor® Test (Enzymatic) Kit. Error bars indicate S.E.M., n=4. *p<0.05 and **p<0.01 (Student's t-test).
Liver was collected, fixed and sectioned. H&E staining was carried out according to the standard protocol. Scale bar, […] for all images.
Male C57 mice were subjected to high-fat diet feeding for 8 weeks to induce obesity. An acute lung injury (ALI) model was established in the obesity mice by administering 30 μg of LPS intratracheally per mouse.
In addition, lean mice and obese mice without ALI were included in the study as controls and received no treatment. Body weight of the mice was monitored every other day during the study. One day prior to sacrificing the mice, an insulin tolerance test (ITT) was conducted. Blood and major organs were collected at the end of the study, and plasma triglycerides, total and non-HDL cholesterol were quantified. The organs were weighed and sectioned for H&E staining.

Series [2] is described as follows: In vivo pharmacokinetics of DEX conjugates. The following applies: male, DBA/1J, mouse, plasma, iv, 1 mg kg^-1 (DEX equivalent); healthy mice; mean ± SD (n = 3).
Experimental: All the animal experiments were performed on 3 mice per group. The data are presented as the mean±standard deviation (SD). […] All the animal experiments were performed on 3 mice per group. The data are presented as the mean±standard deviation (SD). Statistical significance was calculated using Student's t test. *P<0.05, **P<0.01 between groups. […] ND, not determined.
HPLC-MS/MS analysis was performed using the chromatographic system consisting of UltiMate 3000 RSLCnano System (Thermo Fisher Scientific) and a ZORBAX C18 column (5 μm, 150 mm 0.5 mm, Agilent, Santa Clara, CA). The mobile phase was a mixture of H2O/acetonitrile with a gradient elution (from 90:10 to 10:90 and return to 90:10, v/v) at a flow rate of 15 μl/min. The eluent was introduced directly into the electrospray source of a tandem quadrupole mass spectrometer (TSQ VANTAGE, Thermo Fisher Scientific) that was operated in the positive mode. The spray voltage was set at 3000 V. The compounds were analyzed by multiple reaction monitoring (MRM) of the transitions of m/z (ESI+) 361.24→147.06 for PSL.
Healthy DBA/1J male mice at age of 8-9 weeks were deprived of food overnight with free access to water. […] Approximately 20 IL of blood was collected via facial vein at 5, 15, 30, 60 min and, 2, 6, 12, 24, and 48 h, and plasma were obtained by centrifugation at 500×g for 10 min. […]
Series [3] in a line: Short-term side effects of DEX conjugates in CIA mice. It is filed as in vivo, mouse. The following applies: 0.01 mg kg-1 DEX equivalent i.v. every two days for one week. The method, then:
(§2) (A) Quantification of immunofluorescent signals (Top) and representative immunofluorescent images (bottom) of TUNEL-positive cells showing apoptotic cells in tissues of mice receiving short-term treatments. (B-C) Plasma levels of liver enzymes alanine transaminase (ALT) and (F) aspartate transaminase (AST). […] Thymus and spleen weight in mice receiving long-term treatments.
(§3) The TUNEL staining was performed using an In Situ Cell Death Detection Kit (Roche Diagnostics GmbH, Mannheim, Germany). The paraffin sections were stained with TUNEL reaction mixture for 1 h at 37° C. followed by Hoechst staining for nucleus. The images were captured by using fluorescence microscopy EVOS M5000 and the fluorescence intensity of TUNEL positive cells was evaluated by ImageJ software for semi-quantification.
(§4) The aminotransferase quantification was performed to determine toxicity effect of different formulations of PSL on the liver. Blood samples were collected by cardiac puncture after the treatment. The levels of aspartate aminotransferase (AST) and alanine aminotransferase (ALT) in plasma were measured using assay kits from Stanbio (Boerne, TX).
(§5) Additionally, we examined the commonly seen systemic side effects including the reduced thymus and spleen weight due to increased apoptosis after a short-term low dose and a long-term glucocorticoid usage.

Series [4] can be described thus: Long-term toxicity of DEX conjugates in healthy mice. The conditions noted are these: 2 mg kg-1 DEX equivalent, daily i.v. for 2 weeks. It counts as in vivo, mouse. As to the method:
as §2, §3, §4, §5

For series [5], the system named is inflamed synovium of the arthritic joints. Put plainly: FAM-CRV homing in CIA mice (IHC/IF). It is filed as in vivo, mouse. The following applies: i.v., 1 h, IHC. The method, then:
as §1
FIG. 8A-8G CRV targets the inflamed synovium of the arthritic joints. (A) Scheme of the establishment of collagen-induced arthritis (CIA) model. (B) In vivo PET/CT images of 64Cu-DOTA and 64Cu-DOTA-CRV accumulation at the joints of mice with CIA. […] (C) Quantification of 64Cu-DOTA or 64Cu-DOTA-CRV uptake at the knees and ankles by analyzing PET data of the region of interest (ROI). […] (E) Representative IHC images of CRV-peptide accumulation in the knee joint as detected by FAM signals with anti-FITC antibody. […]

Bridge positions count the residues as written; N and C are the ends. Ends that are not written are not given here. Peptide text beside a SMILES is read from it. * marks the point of attachment. 5FAM = O=C1OC2(c3ccc(O)cc3Oc3cc(O)ccc32)c2ccc(C(=O)*)cc21; FAM = fluorescein amidite (fluorescein); Ahx = NCCCCCC(=O)O

Turning to “GGS: control peptide <FAM>-<Ahx>-GGSGGSKG (SEQ ID NO: 2) ({FAM-Ahx}-GGSGGSKG)”, in the series on arthritic joints, the “peptide accumulation in arthritic joints” value was “few FAM signals were detected”. The “peptide accumulation in the healthy lung” value in the series with inflamed lung is listed as “little accumulation”.
For the compound `C[C@@H]1C[C@H]2[C@@H]3CCC4=CC(=O)C=C[C@]4(C)[C@@]3(F)[C@@H](O)C[C@]2(C)[C@@]1(O)C(=O)CO` [DEX, dexamethasone], in series [1], the Thymus weight entry was “reduces thymus weight”, the “body weights or blood glucose” value is given as “no change” and the “triglycerides in the plasma” value is given as “elevates the blood triglyceride”. The exposure AUC(0-t) in series [2] came out at 23.2 ± 5.14 ng·h/mL. For the same compound, in series [3], the “apoptosis in tissues (TUNEL), short-term” value was “increases the level of apoptosis mainly in the thymus”. In addition, in series [4], the “apoptosis in thymus and spleen (TUNEL), long-term” value was “increased apoptosis in thymus and spleen”; the “thymus and spleen weight, long-term” value was “most significant weight loss of thymus and spleen”.
With `CC(C)C[C@@H]1NC(=O)[C@H](C(C)C)NC(=O)[C@H](CCCNC(=N)N)NC(=O)[C@@H](NC(=O)CCCCCNC(=O)c2ccc3c(c2)C(=O)OC32c3ccc(O)cc3Oc3cc(O)ccc32)CSSC[C@@H](C(=O)O)NC(=O)[C@H](CO)NC(=O)CNC(=O)[C@H](CO)NC(=O)[C@H](CCCNC(=N)N)NC1=O` [CRV] ({5FAM-Ahx}-CRVLRSGSC-OH; disulfide 1-9), in series [5], the “peptide accumulation in other organs” value is “some accumulation of CRV in the liver and kidney, while no or much less in other organs”.
